{"source": "patent US20250275993A1", "about": "“GLYCOSYLATION INHIBITORS AS THERAPEUTICS FOR STROKE” (The Regents of the University of California, priority 2022, published 2025)", "key": {"[1]": {"system": "bovine retinal microvascular endothelial cells (BREC)", "test": "BREC proliferation assay", "type": "cell-based", "conditions": "bovine retinal EC", "description": "(§1) Proliferation assays with BCECs and BRECs were performed. Log-phase growing BCECs or BRECs (passage <10) were trypsinized, re-suspended and seeded in 96-well plates (no coating) in low-glucose DMEM supplemented with 10% bovine calf serum, 2 mM glutamine, and antibiotics (growth medium), at a density of 1200-1500 cells per well in 200 μl volume. All reagents were added at the indicated final concentrations. After 3-6 days, cells were incubated with AlamarBlue for 4 hrs. Fluorescence was measured at 530 nm excitation wavelength and 590 nm emission wavelength. The experiments were repeated at least three times. To create a hypoxic condition, cells were placed in a hypoxia incubator with a mixture of gas consisting of 1% O2, 5% CO2 and 94% N2. On each 96-well plate, untreated and VEGF-treated (10/ng/ml) wells were included to monitor plate-to-plate variations. 20% methanol or 0.05% DMSO served as negative controls. […] Human RMVECs and human adult DMVECs were split into Gelatin-coated 96 wells (2000 cells per well) in low glucose DMEM containing 10% FBS. 1200 cells/well was set up for proliferation assay in low glucose media containing 0.5% FBS. Data was collected at day 4 or 5. HUVEC (p7-10) were grown on gelatin-coated plate until it reached 70-80% confluency."}, "[2]": {"system": "dermal microvascular endothelial cells (hDMVECs)", "test": "hDMVEC proliferation assay", "type": "cell-based, human", "description": "as §1\nProliferation assays with fibroblasts were done in low-glucose DMEM containing 1% FBS, with or without 10 ng/ml bFGF, or 100 ng/ml human EGF and the assay was ended at day 3. ARPE-19 cells were gently lifted with 0.025% trypsin and plated in RtEGM media (Clonetics) containing 2% FBS, L-glutamine, human bFGF and GA-1000. Once cells were attached to plates, serum-free RtEGM media was used to maintain the cultures. For proliferation assays, 1500 human RPE cells were plated into 96-well plates in low-glucose DMEM containing 1% FBS. A673, U87MG, Calu6 and AML12 cells were grown until confluent and were then harvested and re-suspended in appropriate assay media. […] Four days later, tumor cell growth was measured by the MTS assay (Promega, Madison, WI), a colorimetric assay that measures metabolic activity of viable cells. […]"}, "[3]": {"system": "HUVEC", "test": "HUVEC scratch assay", "type": "cell-based, human", "conditions": "40 μM ManN in combination with 50 ng/ml VEGF", "description": "BCECs (passage 6-10) and HUVEC (passage 6-8) were used in this assay.\nCells were grown until about 80% confluency in 6-well plates, washed twice with PBS and then starved in serum-free DMEM (low Glucose, Hyclone) for 5 hrs before making a “scratch” using 1 ml tip. Cell monolayers were briefly washed once with serum-free media, followed by various treatments in media containing 1% FBS. 48 hrs later, the assay was stopped by adding 2 ml 4% paraformaldehyde. 20 min later, fixed cells were stained with 1 ml Crystal Violet (Sigma). Plates were washed gently under the running tap water and air-dried before taking pictures. Images were acquired by ZEISS Discovery V8 SteREO microscopy equipped with PixeLINK Megapixel FireWire camera. Quantification of wound closure was done using AxioVision LE Rel.4.4 software. Six images were taken for each sample and six measurements (in pixel) were made on each image using AxioVision LE Re1.4.4 software."}, "[4]": {"system": "bFGFR 1 or β1 integrin", "test": "Western blot of protein molecular mass in non-endothelial cells", "type": "cell-based", "conditions": "400 μM and 2 mM", "description": "Cells were allowed to reach-80% confluency in 12-well plates. […] At various time points, plates were taken out of the incubator and kept on ice. Cell monolayers were first washed once with ice-cold PBS before lysis with 250 μI of Pierce RIPA buffer (ThermoFisher Scientific, Rockford, IL) or use 50 mM Tris-HCl (pH 7.6), 150 mM NaCl, 10% Glycerol, 1% NP-40 containing protease/Phosphatase inhibitor cocktail (100×) (Cell signaling, #5872). Lysates were collected and mixed with 4× Bolt LDS Sample Buffer (Novex, Carlsbad, CA) in the presence of Halt protease inhibitors and phosphatase inhibitor cocktail (ThermoFisher scientific, #NP0007). The samples were subjected to SDS-PAGE (Bolt 4-12% Bis-Tris Plus, Invitrogen) using Bolt MES SDS running buffer or NuPAGE 3-8% Tris-Acetate gel using Tris-Acetate SDS running buffer (Novex). HUVECs (passage 6-8) were plated in EBM-2 basal medium (Lonza) with 0.2% FBS. Following overnight culture, cells were serum-starved in EBM-2 medium for 4 hrs prior to treatment with 50 ng/ml of VEGF165 or vehicle controls for various lengths. Equal amounts of protein lysates were analyzed by SDS-PAGE and blotted with the indicated antibodies. Proteins were transferred using Tris-Glycine buffer with 20% Methanol (Proteonomics grade) (Apex BioResearch Products). […]"}, "[5]": {"system": "vascular permeability in guinea pig skin", "test": "Vascular permeability assay (modified Miles assay)", "type": "in vivo", "conditions": "ManN 1 ng-5 μg, VEGF 25 ng, intradermal", "description": "Vascular permeability was assessed using a modified Miles assay. Hairless male guinea pigs (Crl: HA-Hrhr/IAF, 75 days old, 450-500 g, Charles River Laboratories) were anesthetized by intraperitoneal (i.p.) administration of xylazine (5 mg/kg) and ketamine (75 mg/kg). The animals then received an intravenous injection (penile vein) of 1 ml of 1% Evans blue dye. After 15 mins, intradermal injections (0.05 ml/per site) of different doses of ManN were administrated into the area of trunk posterior to the shoulder. All reagents were diluted in PBS for intradermal administration. 25 ng of VEGF165 per site was used as positive control. 30 mins after the intradermal injections, animals were euthanized by i.p. injection of pentobarbital (200 mg/kg). Skin tissues were dissected from the connective tissues and photographed."}}}
{"smiles": "N[C@H](C=O)[C@@H](O)[C@H](O)[C@H](O)CO", "note": "[ManN, 2-Amino-2-deoxy-D-mannose]", "values": [{"measurement": "additive effects in promoting BREC proliferation", "setting": "[1]", "result": "Additive effects"}, {"measurement": "toxicity on hDMVECs", "setting": "[2]; 5 mM ManN", "result": "minimal toxicity"}, {"measurement": "hDMVECs growth, ManN by itself", "setting": "[2]; ManN alone", "result": "stimulated"}, {"measurement": "additivity with VEGF on hDMVEC proliferation", "setting": "[2]; with VEGF", "result": "dose-dependent additivity with VEGF"}, {"measurement": "HUVEC wound closure", "setting": "[3]", "result": "stimulation of migration and wound closure"}, {"measurement": "molecular mass change of bFGFR 1 or β1 integrin in non-ECs", "setting": "[4]", "result": "could induce molecular mass change"}, {"measurement": "induction of vascular permeability", "setting": "[5]", "result": "no permeability-enhancing effects"}]}
